Data as given in US20080234326A1, “Novel Salts of Pantoprazole and (S) - Pantoprazole” (Altana Pharma AG, priority 2004, published 2008).

Experiment: stability as a storage form
Assay type: physicochemical
Conditions: statement in words, no method or data given

Structure (SMILES): COc1ccnc(C[S+]([O-])c2nc3cc(OC(F)F)ccc3[n-]2)c1OC.[Na+] [sodium salt of (−)- or (S)-pantoprazole]
- formation of a stable storage form: does not form a stable storage form
